Consider 7 compounds from patent US10870646B2, “Oxazolidinones and pharmaceutical compositions thereof for treating bacterial infections, including infection of Mycobacterium tuberculosis” (University of St. Thomas, priority 2017, dated 2020).

Values after ≈ are worked out from the molar mass of the structure shown. Like-named read-outs stand apart in the source and are kept apart here. Some results are limits rather than exact numbers.

Assay [1] concerns Mycobacterium tuberculosis. The note with it: cited from earlier work; for MIC90: Mycobacterium tuberculosis, strain not stated, Kaushik et al. 2015 cited after the table.
Assay [2] concerns Enterococcus faecalis. Description: MIC90 broth microdilution. The format is cell-based. The settings on record: for MIC90: Enterococcus faecalis.
In assay [3] the test system is Staphylococcus aureus. Briefly: MIC90 broth microdilution. The format is cell-based. The settings on record: for MIC90: Staphylococcus aureus. On the technique in general: Broth dilution looks for growth in wells or tubes with falling amounts of substance.
For assay [4], the system named is Acinetobacter baumannii ACBA. Description: MIC90 broth microdilution. The class given is cell-based.
Assay [5] deals with Acinetobacter baumannii ATCC 19606. Briefly: MIC90 broth microdilution. The format is cell-based. The settings on record: ATCC19606.
The test system of assay [6] is Pseudomonas aeruginosa. Description: MIC90 broth microdilution. The format is cell-based. The note with it: for MIC90: Pseudomonas aeruginosa.
For assay [7], the system named is Mycobacterium avium. Briefly: MIC90 broth microdilution. The format is cell-based. The note with it: for MIC90: Mycobacterium avium.
Assay [8] deals with Mycobacterium tuberculosis H37Rv. Briefly: MIC90 broth macrodilution. The class given is cell-based.
Assay [9] relates to Klebsiella pneumoniae. Briefly: MIC90 broth microdilution. The class given is cell-based. The settings on record: for MIC90: Klebsiella pneumoniae.
Assay [10] concerns Enterobacter cloacae. Description: MIC90 broth microdilution. The note with it: for MIC90: Enterobacter cloacae. The class given is cell-based.
Assay [11] has as its system Acinetobacter baumannii 6M-1b. Description: MIC90 broth microdilution. The format is cell-based.
Assay [12] relates to Mycobacterium abscessus. Briefly: MIC90 broth microdilution. The format is cell-based. The note with it: for MIC90: Mycobacteroides abscessus.
Assay [13] relates to S. aureus. The settings on record: Zurenko et al. 1996; cited from earlier work.
The test system of assay [14] is Mtb. Briefly: Checkerboard titration assay (drug-drug interaction). The format is cell-based, Mycobacterium tuberculosis. The settings on record: combined with isoniazid or rifampicin.
Assay [15] concerns S. aureus. Described as above. The class given is cell-based, Staphylococcus aureus. The note with it: combined with biapenem, faropenem and tebipenem.
In assay [16] the test system is E. faecalis. Briefly: Minimum bactericidal concentration (MBC99.9). The settings on record: up to 8 times MIC90. The class given is cell-based, Enterococcus faecalis.
Assay [17] concerns E. faecalis. Briefly: Checkerboard titration assay (drug-drug interaction). The format is cell-based, Enterococcus faecalis. The note with it: combined with biapenem, faropenem and tebipenem.
For assay [18], the system named is Mtb H37Rv. Description: Minimum bactericidal concentration (MBC99.9). The class given is cell-based, Mycobacterium tuberculosis.
The subject of assay [19] is E. faecalis. The format is cell-based, Enterococcus faecalis.
In assay [20] the test system is S. aureus. The format is cell-based, Staphylococcus aureus.
The test system of assay [21] is S. aureus. Briefly: Minimum bactericidal concentration (MBC99.9). The format is cell-based, Staphylococcus aureus. The note with it: up to 8 times MIC90.
The mark [22] stands for this setting: Acinetobacter baumannii ACBA, patient isolate.
The mark [23] stands for this setting: Acinetobacter baumannii ACBA, patient isolate, read-out: MIC90.
[24] abbreviates: Acinetobacter baumannii ATCC 19606, read-out: MIC90.
Setting [25] is: Mycobacterium tuberculosis H37Rv, read-out: MIC90.
Setting [26] is: Acinetobacter baumannii 6M-1b, environmental isolate.
The mark [27] stands for this setting: Mycobacterium abscessus, read-out: MIC90.

Take `C[C@@H](O)[C@H]1C(=O)N2C(C(=O)O)=C([C@H]3CCCO3)S[C@H]12` [Faropenem]: the MIC90 was 2.5 to 5.0 µg/mL in assay [1], 0.25 to 0.5 µg/mL (≈ 0.876 to 1.75 µM) in assay [2] (read-out: MIC90) and 0.015 to 0.03 µg/mL (≈ 0.0526 to 0.105 µM) in assay [3] (read-out: MIC90).

For the compound `C[C@@H](O)[C@H]1C(=O)N2C(C(=O)O)=C(S[C@@H]3CN[C@H](C(=O)N(C)C)C3)[C@H](C)[C@H]12` [Meropenem, reference compound], the MIC90 in assay [4] (setting [22]) is more than 64 µg/mL; in assay [4] (setting [23]), more than 64 µg/mL; in assay [5] (setting [24]), more than 64 µg/mL; in [6] (read-out: MIC90) it was 0.25 to 0.5 µg/mL (≈ 0.652 to 1.3 µM); in [2] (read-out: MIC90) it was 4 to 8 µg/mL (≈ 10.4 to 20.9 µM); in [7] (read-out: MIC90) it was more than 64 µg/mL. Also, the MIC90 in assay [8] (setting [25]) was 4 to 8 µg/mL (≈ 10.4 to 20.9 µM); in [9] (read-out: MIC90) it was less than 0.06 µg/mL; in assay [10] (read-out: MIC90), 0.13 to 0.25 µg/mL (≈ 0.339 to 0.652 µM); in assay [11] (setting [26]) it was 1 to 2 µg/mL; in [3] (read-out: MIC90) it was 0.06 to 0.13 µg/mL (≈ 0.156 to 0.339 µM); in assay [12] (setting [27]), more than 64 µg/mL.

Regarding `C[C@@H](O)[C@H]1C(=O)N2C(C(=O)O)=C(SC3CN(C4=NCCS4)C3)[C@H](C)[C@H]12` [Tebipenem], the MIC90 in assay [1] was 1.25 to 2.5 µg/mL; in assay [2] (read-out: MIC90), 0.25 to 0.5 µg/mL (≈ 0.652 to 1.3 µM); in assay [3] (read-out: MIC90) it was 0.03 to 0.06 µg/mL (≈ 0.0782 to 0.156 µM).

As for `COc1cccc2c1Oc1ccc(N3C[C@H](CNC(C)=O)OC3=O)cc1O2` [Compound T197, (S)—N-((3-(6-methoxydibenzo[b,e][1,4]dioxin-2-yl)-2-oxooxazolidin-5-yl)methyl)acetamide], the MIC90 in [4] (setting [22]) was more than 64 µg/mL; in [4] (setting [23]), more than 64 µg/mL; in assay [5] (setting [24]), more than 64 µg/mL; in assay [6] (read-out: MIC90) it was more than 64 µg/mL; in assay [2] (read-out: MIC90) it was 8 to 16 µg/mL (≈ 21.6 to 43.2 µM); in assay [7] (read-out: MIC90) it was more than 64 µg/mL. Moreover, the MIC90 in assay [8] (setting [25]) is 8 to 16 µg/mL (≈ 21.6 to 43.2 µM); in assay [9] (read-out: MIC90), more than 64 µg/mL; in assay [10] (read-out: MIC90), more than 64 µg/mL; in [3] (read-out: MIC90), 16 to 32 µg/mL (≈ 43.2 to 86.4 µM); in assay [12] (setting [27]), more than 64 µg/mL.

Take `C[C@@H](O)[C@H]1C(=O)N2C(C(=O)[O-])=C(SC3Cn4cnc[n+]4C3)[C@H](C)[C@H]12` (some centres unmarked) [Biapenem]: the MIC90 in assay [1] was 2.5 to 5.0 µg/mL; in [2] (read-out: MIC90), 0.25 to 0.5 µg/mL (≈ 0.713 to 1.43 µM); in assay [3] (read-out: MIC90), 0.007 to 0.015 µg/mL (≈ 0.02 to 0.0428 µM).

Regarding `CC(=O)NC[C@H]1CN(c2ccc(N3CCOCC3)c(F)c2)C(=O)O1` [Linezolid, reference compound], the MIC90 was more than 64 µg/mL in assay [4] (setting [22]); more than 64 µg/mL in assay [4] (setting [23]); more than 64 µg/mL in assay [5] (setting [24]); more than 64 µg/mL in assay [6] (read-out: MIC90); 1 to 2 µg/mL (≈ 2.96 to 5.93 µM) in assay [2] (read-out: MIC90); 0.2 to 2 µg/mL (≈ 0.593 to 5.93 µM) in assay [8] (setting [25]). The MIC90 in assay [9] (read-out: MIC90) is 16 to 32 µg/mL (≈ 47.4 to 94.9 µM); in assay [10] (read-out: MIC90), more than 64 µg/mL; in assay [11] (setting [26]), 0.25 to 0.50 µg/mL; in assay [11] (Acinetobacter baumannii, 6M1B, Acinetobacter baumannii 6M-1b, environmental isolate, read-out: MIC90), 0.25 to 4 µg/mL (≈ 0.741 to 11.9 µM); in [3] (read-out: MIC90), 1 to 2 µg/mL (≈ 2.96 to 5.93 µM). For the same compound, in [1] (Mtb, Rodriguez et al. 2002), the MIC90 of linezolid is 0.5 to 2.0 µg/mL. Moreover, the “bactericidal or bacteriostatic activity” value in [13] is given as “bacteriostatic activity”.

On to `CC(=O)NC[C@H]1CN(c2ccc3c(c2)Oc2ccccc2O3)C(=O)O1` [Compound T145], for which the “drug-drug interaction (synergy, indifference, antagonism)” value in [14], in [15] and in assay [17] was “indifferent” in each case. Besides, the MIC90 was more than 64 µg/mL in assay [4]; more than 64 µg/mL in assay [4] (Acinetobacter baumannii); 32 to 64 µg/mL (≈ 94 to 188 µM) in assay [5] (Acinetobacter baumannii); more than 64 µg/mL in [6]; 0.25 to 0.5 µg/mL (≈ 0.735 to 1.47 µM) in assay [2]; more than 64 µg/mL in assay [7]. For the same compound, the MIC90 in assay [8] (Mycobacterium tuberculosis, H37RV) was 0.5 to 1 µg/mL (≈ 1.47 to 2.94 µM); in assay [9], more than 64 µg/mL; in assay [10], more than 64 µg/mL; in assay [11], 0.25 to 0.50 µg/mL; in assay [11] (Acinetobacter baumannii, 6M1B), 0.25 to 4 µg/mL (≈ 0.735 to 11.8 µM); in [3], 0.5 to 1 µg/mL (≈ 1.47 to 2.94 µM). This compound gave an MIC90 in assay [12] of more than 64 µg/mL. Moreover, the “bactericidal or bacteriostatic activity” value in assay [16] is “bacteriostatic”; in assay [18] (Mtb, 1, 2, 4 and 8 times MIC90) it was “bactericidal activity”; in assay [21] it was “bacteriostatic”. Further, the “activity against growth (in words)” value is “no activity” in assay [6]; “potent activity” in assay [2]; “no activity” in assay [7]; “no activity” in assay [9]; “no activity” in assay [10]; “potent activity” in [3]. Moreover, the “activity against growth (in words)” value in assay [12] is recorded as “no activity”. The compound also came in with a minimal bactericidal concentration (MBC) in [18] (Mycobacterium tuberculosis, Mtb H37Rv) of 2 µg/mL (≈ 5.88 µM). Further, the “selection of spontaneous resistant mutants” value in assay [19] and in [20] was “failed to produce distinct colonies” throughout.

In general, MIC90 refers to the lowest concentration that inhibits either 90% of growth or 90% of the strains tested, depending on the study. What is called MBC is the lowest tested concentration that kills the bacteria rather than only halting them. A low value points to greater bactericidal potency.
